In assay [1] the test system is Spermatozoa. In words: Spermicidal activity against boar sperm at 50 ug/mL assessed as time required for sperm death. It is filed as functional, cell-based. As to conditions: Sus scrofa.
In assay [2] the test system is Spermatozoa. Kind of assay: Spermicidal activity against bovine spermatozoa at 800 ug/mL assessed as time required for sperm death. Format: functional, Bos taurus.
Assay [3] relates to Spermatozoa. In words: Spermicidal activity against horse sperm at 800 ug/mL assessed as time required for sperm death. It is filed as functional, Equus caballus.
Assay [4] concerns Spermatozoa. In words: Spermicidal activity against rat sperm at 200 ug/mL assessed as time required for sperm death. It is filed as functional.
In assay [5] the test system is Spermatozoa. In words: Spermicidal activity against boar sperm at 200 ug/mL assessed as time required for sperm death. It is filed as functional, Sus scrofa.

The results in this text go back to ChEMBL document CHEMBL1144860, “Spermicidal bacteriocins: lacticin 3147 and subtilosin A” (2008).

Active and inactive are the calls of the source. No cut-off for these calls is given here.

Take `C/C=C(\NC(=O)C(=O)CC)C(=O)N1CCC[C@H]1C(=O)N[C@@H](C)C(=O)N/C(=C\C)C(=O)N1CCC[C@H]1C(=O)N[C@@H](C)C(=O)N[C@H](C(=O)N[C@H](C)C(=O)N[C@H](C(=O)N[C@@H](CC(C)C)C(=O)N[C@H](C)C(=O)N[C@@H](C)C(=O)N[C@@H](Cc1ccc(O)cc1)C(=O)N[C@H](C(=O)N[C@H]1CSC[C@H](C(=O)N2CCC[C@H]2C(=O)N[C@H]2C(=O)N[C@@H]([C@@H](C)O)C(=O)N[C@@H](CCCCN)C(=O)N[C@H](C(=O)N[C@H]3C(=O)N[C@@H](CCCNC(=N)N)C(=O)N[C@@H](C)C(=O)N[C@@H](C(=O)O)CSC3C)CSC2C)NC(=O)[C@H]([C@@H](C)O)NC(=O)[C@H](CC(N)=O)NC(=O)[C@H]([C@@H](C)O)NC1=O)[C@@H](C)CC)[C@@H](C)CC)[C@@H](C)CC` (stereo not given in full): the outcome with Spermatozoa [1] was Active.

Regarding `C/C=C(\NC(=O)[C@H](CC(N)=O)NC(=O)/C(=C/C)NC(=O)[C@H]1CSC[C@H](N)C(=O)N1)C(=O)N[C@@H](Cc1ccccc1)C(=O)N[C@H](C)C(=O)N[C@@H](CC(C)C)C(=O)N[C@@H]1CSC[C@@H](C(=O)N[C@H]2C(=O)N[C@@H](CC(C)C)C(=O)N[C@H]3C(=O)N[C@@H](Cc4cnc[nH]4)C(=O)N[C@@H](CCC(=O)O)C(=O)N[C@@H](CS[C@H]2C)C(=O)N[C@@H](CCSC)C(=O)N[C@@H](C)C(=O)N[C@@H](Cc2c[nH]c4ccccc24)C(=O)N[C@H](C(=O)N[C@@H](CCCCN)C(=O)O)CS[C@H]3C)NC(=O)[C@H](Cc2c[nH]c3ccccc23)NC(=O)[C@H](C)NC(=O)CNC(=O)[C@H](CC(N)=O)NC(=O)[C@H](CC(N)=O)NC(=O)CNC(=O)[C@H](Cc2c[nH]c3ccccc23)NC(=O)[C@H](Cc2ccc(O)cc2)NC(=O)[C@H](CC(=O)O)NC1=O`, the Time with Spermatozoa [2] is on record as 16.6 min; in the assay on Spermatozoa [3] it was 12.7 min; with Spermatozoa [4] it was 2.3 min; in the assay on Spermatozoa [5] it was 2.5 min.

Consider `C/C=C(\NC(=O)[C@H](CC(N)=O)NC(=O)/C(=C\C)NC(=O)[C@H](C)NC(=O)[C@H](C)N)C(=O)N[C@@H](Cc1ccccc1)C(=O)N[C@H](C)C(=O)N[C@@H](CC(C)C)C(=O)N[C@@H]1CSC[C@H](C(=O)N[C@H]2C(=O)N[C@@H](CC(C)C)C(=O)N[C@H]3C(=O)N[C@@H](Cc4cnc[nH]4)C(=O)N[C@@H](CCC(=O)O)C(=O)N[C@@H](CCS[C@H]2C)C(=O)N[C@@H](CCSC)C(=O)N[C@@H](C)C(=O)N[C@@H](Cc2c[nH]c4ccccc24)C(=O)N[C@H](C(=O)N[C@@H](CCCCN)C(=O)O)CSC3C)NC(=O)[C@H](Cc2c[nH]c3ccccc23)NC(=O)[C@H](C)NC(=O)CNC(=O)[C@H](CC(N)=O)NC(=O)[C@H](CC(N)=O)NC(=O)CNC(=O)[C@H](Cc2c[nH]c3ccccc23)NC(=O)[C@H](Cc2ccc(O)cc2)NC(=O)[C@H](CC(=O)O)NC1=O` (stereo not given in full), for which the result in the assay on Spermatozoa [1] was Active.

Turning to `C/C=C(\NC(=O)C(=O)CC)C(=O)N1CCC[C@H]1C(=O)N[C@@H](C)C(=O)N/C(=C\C)C(=O)N1CCC[C@H]1C(=O)N[C@@H](C)C(=O)N[C@H](C(=O)N[C@H](C)C(=O)N[C@H](C(=O)N[C@@H](CC(C)C)C(=O)N[C@H](C)C(=O)N[C@@H](C)C(=O)N[C@@H](Cc1ccc(O)cc1)C(=O)N[C@H](C(=O)N[C@@H]1CSC[C@@H](C(=O)N2CCC[C@H]2C(=O)N[C@H]2C(=O)N[C@@H]([C@@H](C)O)C(=O)N[C@@H](CCCCN)C(=O)N[C@H](C(=O)N[C@H]3C(=O)N[C@@H](CCCNC(=N)N)C(=O)N[C@@H](C)C(=O)N[C@H](C(=O)O)CSC3C)CSC2C)NC(=O)[C@H]([C@@H](C)O)NC(=O)[C@H](CC(N)=O)NC(=O)[C@H]([C@@H](C)O)NC1=O)[C@@H](C)CC)[C@@H](C)CC)[C@@H](C)CC` (stereo not given in full), the Time was 2.5 min in the assay with Spermatozoa [2], 4.8 min in the assay with Spermatozoa [3], 2 min in the assay with Spermatozoa [4] and 1.8 min in the assay with Spermatozoa [5].
